Tested on: monocrotaline reversal model of pulmonary hypertension
Assay: monocrotaline reversal model of pulmonary hypertension
Format: in vivo
Conditions: 3 mg/kg orally once daily from days 21-42; also dosed at 0.3 and 1 mg/kg
Protocol: The compound of formula II, namely 4-[8-(3-Fluorophenyl)-[1,7]naphthyridin-6-yl]-cyclohexanecarboxylic acid and being a representative example of compounds of formula I, is tested in the monocrotaline reversal model of pulmonary hypertension that is described by Schermuly et al in The Journal of Clinical Investigation 2005 October; 115(10):2811-21. The disclosure of that article is incorporated herein by way of reference.
4-[8-(3-Fluorophenyl)-[1,7]-naphthyridin-6-yl]-cyclohexanecarboxylic acid is dosed orally to the animals once daily from days 21-42 of the experiment at 0.3, 1 and 3 mg/kg.

O=C(O)C1CCC(c2cc3cccnc3c(-c3cccc(F)c3)n2)CC1 (stereo not shown) [4-[8-(3-Fluorophenyl)-[1,7]naphthyridin-6-yl]-cyclohexanecarboxylic acid]
shows efficacy: medial wall thickness | mortality | reversal of RV (right ventricular) pressure | reversal of RV hypertrophy

Source: US20090023769A1, “Organic Compounds” (NOVARTIS AG, priority 2006, published 2009)
